Data as given in US4753953A, “Pyridonecarboxylic acid derivatives and antibacterial pharmaceutical compositions thereof” (priority 1985, dated 1988).
Values after ≈ are worked out from the molar mass of the structure shown.

What was measured:
C. ramosum = assay: MIC, in vitro antibacterial activity (standard strains); format: cell-based; settings: Thomasclavelia ramosa; 10^6 cells/ml; Gram +; read-out: MIC
[1] = test system: S. aureus IID 670 (Terajima); assay: as above; format: cell-based, Staphylococcus aureus; settings: Staphylococcus aureus, IID670; 10^6 cells/ml; Gram +; read-out: MIC
[2] = test system: Veillonella parvula KYA 10790; assay: as above; format: cell-based; settings: Veillonella parvula, KYA10790; 10^6 cells/ml; Gram -; read-out: MIC
[3] = test system: Klebsiella pneumoniae KY(GN)6445; assay: as above; format: cell-based; settings: Klebsiella pneumoniae; 10^6 cells/ml; Gram -; read-out: MIC
[4] = test system: Bacteroides fragilis GM 7000; assay: as above; format: cell-based; settings: Bacteroides fragilis, GM7000; 10^6 cells/ml; Gram -; read-out: MIC
[5] = test system: Salmonella enteritidis IID 604; assay: as above; format: cell-based; settings: Salmonella enterica; 10^6 cells/ml; Gram -; read-out: MIC
B. fragilis 25285 = assay: as above; format: cell-based, Bacteroides fragilis; settings: Bacteroides fragilis, 25285; 10^6 cells/ml; Gram -; read-out: MIC
[6] = test system: Staphylococcus aureus 209 P; assay: as above; format: cell-based; settings: Staphylococcus aureus, 209P; 10^6 cells/ml; Gram +; read-out: MIC
E. coli ML 4707 = assay: as above; format: cell-based, Escherichia coli; settings: Escherichia coli, ML4707, 10^6 cells/ml; Gram -; Table 1; read-out: MIC
P. maltophilia GIFU 2491 = assay: as above; format: cell-based; settings: Stenotrophomonas maltophilia, GIFU2491; 10^6 cells/ml; Gram -; read-out: MIC
B. fragilis 0558 = assay: as above; format: cell-based, Bacteroides fragilis; settings: Bacteroides fragilis, 0558; 10^6 cells/ml; Gram -; read-out: MIC
[7] = test system: Eubacterium lentum GAI 5242; assay: as above; format: cell-based; settings: Eggerthella lenta, GAI5242; 10^6 cells/ml; Gram +; read-out: MIC
S. pneumoniae IID 552 = assay: as above; format: cell-based; settings: Streptococcus pneumoniae, IID552; 10^6 cells/ml; Gram +; read-out: MIC
P. cepacia GIFU 518 = assay: as above; format: cell-based; settings: Burkholderia cepacia, GIFU518
[8] = test system: B. thetaiotaomicron (0661); assay: as above; format: cell-based; settings: Bacteroides thetaiotaomicron; 10^6 cells/ml; Gram -; read-out: MIC
[9] = test system: Acinetobacter anitratus IID 876; assay: as above; format: cell-based; settings: Acinetobacter calcoaceticus, IID876; 10^6 cells/ml; Gram -; read-out: MIC
Pst. micros UPI 5464-1 = assay: as above; format: cell-based; settings: Parvimonas micra, UPI54641; 10^6 cells/ml; Gram +; read-out: MIC
[10] = test system: Alcaligenes faecalis 0114002; assay: as above; format: cell-based; settings: Alcaligenes faecalis, 0114002; 10^6 cells/ml; Gram -; read-out: MIC
B. vulgatus KYA 29327 = assay: as above; format: cell-based; settings: Phocaeicola vulgatus, KYA29327; 10^6 cells/ml; Gram -; read-out: MIC
S. pyogenes IID 692 = assay: as above; format: cell-based, Streptococcus pyogenes; settings: Streptococcus pyogenes, IID692; 10^6 cells/ml; Gram +; read-out: MIC
[11] = test system: Peptococcus magnus KY 017; assay: as above; format: cell-based; settings: Finegoldia magna, KY017; 10^6 cells/ml; Gram +; read-out: MIC
[12] = test system: Fusobacterium mortiferum 4249; assay: as above; format: cell-based; settings: Fusobacterium mortiferum, 4249; 10^6 cells/ml; Gram -; read-out: MIC
E. coli ATCC 10536 = assay: as above; format: cell-based, Escherichia coli; settings: Escherichia coli, ATCC10536; 10^6 cells/ml; Gram -; read-out: MIC
[13] = test system: Enterobacter cloacae IID 977; assay: as above; format: cell-based; settings: Enterobacter cloacae, IID977; 10^6 cells/ml; Gram -; read-out: MIC
P. aeruginosa IID 1210 = assay: as above; format: cell-based, Pseudomonas aeruginosa; settings: Pseudomonas aeruginosa, IID1210; 10^6 cells/ml; Gram -; read-out: MIC
C. perfringens KYA 13123 = assay: microbe, parasite or virus in culture; format: cell-based; settings: Clostridium perfringens, KYA13123
[14] = test system: Proteus vulgaris IFO 3167; assay: MIC, in vitro antibacterial activity (standard strains); format: cell-based; settings: Proteus vulgaris, IFO3167; 10^6 cells/ml; Gram -; read-out: MIC
[15] = test system: Yersinia enterocolitica IID 981; assay: as above; format: cell-based; settings: Yersinia enterocolitica, IID981; 10^6 cells/ml; Gram -; read-out: MIC
B. distasonis 8503 = assay: as above; format: cell-based; settings: Parabacteroides distasonis, 8503; 10^6 cells/ml; Gram -; read-out: MIC
Shigella sonnei IID 969 = assay: as above; format: cell-based; settings: Shigella sonnei, IID969; 10^6 cells/ml; Gram -; read-out: MIC
Description: Minimal inhibitory concentrations (MICs) were determined in accordance with the method recommended by Japan Society of Chemotherapy.

S. aureus Smith = assay: as above; format: cell-based, Staphylococcus aureus; settings: Staphylococcus aureus; 10^6 cells/ml; Gram +; read-out: MIC
F. necrophorum S-45 = assay: as above; format: cell-based; settings: Fusobacterium necrophorum, S45; 10^6 cells/ml; Gram -; read-out: MIC

Compound	MIC (C. ramosum) [µg/mL]	MIC [1] [µg/mL]	MIC [2] [µg/mL]	MIC [3] [µg/mL]	MIC [4] [µg/mL]	MIC [5] [µg/mL]	MIC (B. fragilis 25285) [µg/mL]	MIC [6] [µg/mL]	MIC (E. coli ML 4707) [µg/mL]	MIC (P. maltophilia GIFU 2491) [µg/mL]	MIC (B. fragilis 0558) [µg/mL]	MIC [7] [µg/mL]	MIC (S. pneumoniae IID 552) [µg/mL]	MIC (P. cepacia GIFU 518) [µg/mL]	MIC [8] [µg/mL]	MIC [9] [µg/mL]	MIC (Pst. micros UPI 5464-1) [µg/mL]	MIC [10] [µg/mL]	MIC (B. vulgatus KYA 29327) [µg/mL]	MIC (S. pyogenes IID 692) [µg/mL]	other results
CCn1cc(C(=O)O)c(=O)c2cc(F)c(N3C[C@@H](N)[C@@H](C)C3)c(Cl)c21 (relative stereo) [Example 23, 7-(cis-3-Amino-4-methyl-1-pyrrolidinyl)-8-chloro-1-ethyl-6-fluoro-1,4-dihydro-4-oxo-3-quinolinecarboxylic acid]	6.25 (≈ 17 µM)	0.2 (≈ 0.544 µM)	0.78 (≈ 2.12 µM)	0.05 (≈ 0.136 µM)	0.78 (≈ 2.12 µM)	0.1 (≈ 0.272 µM)	0.78 (≈ 2.12 µM)	0.1 (≈ 0.272 µM)	0.05 (≈ 0.136 µM)	0.39 (≈ 1.06 µM)	0.78 (≈ 2.12 µM)	1.56 (≈ 4.24 µM)	0.78 (≈ 2.12 µM)	0.78 (≈ 2.12 µM)	1.56 (≈ 4.24 µM)	0.39 (≈ 1.06 µM)	0.78 (≈ 2.12 µM)	1.56 (≈ 4.24 µM)	1.56 (≈ 4.24 µM)	0.78 (≈ 2.12 µM)	MIC [11]: 0.78 µg/mL (≈ 2.12 µM); MIC [12]: 1.56 µg/mL (≈ 4.24 µM); MIC (E. coli ATCC 10536): 0.05 µg/mL (≈ 0.136 µM); MIC [13]: 0.1 µg/mL (≈ 0.272 µM); MIC (P. aeruginosa IID 1210): 6.25 µg/mL (≈ 17 µM); MIC (C. perfringens KYA 13123): 0.78 µg/mL (≈ 2.12 µM); MIC [14]: 0.05 µg/mL (≈ 0.136 µM); MIC [15]: 0.05 µg/mL (≈ 0.136 µM); MIC (B. distasonis 8503): 3.13 µg/mL (≈ 8.51 µM); MIC (Shigella sonnei IID 969): 0.05 µg/mL (≈ 0.136 µM); MIC (S. aureus Smith): 0.2 µg/mL (≈ 0.544 µM); MIC (F. necrophorum S-45): 1.56 µg/mL (≈ 4.24 µM)
C[C@H]1CN(c2c(F)cc3c(=O)c(C(=O)O)cn(CCF)c3c2F)C[C@H]1N (relative stereo) [Example 25, 7-(cis-b 3-Amino-4-methyl-1-pyrrolidinyl)-6,8-difluoro-1-(2-fluoroethyl)-1,4-dihydro-4-oxo-3-quinolinecarboxylic acid]	25 (≈ 67.7 µM)	0.39 (≈ 1.06 µM)	0.78 (≈ 2.11 µM)	0.1 (≈ 0.271 µM)	6.25 (≈ 16.9 µM)	0.1 (≈ 0.271 µM)	3.13 (≈ 8.47 µM)	0.2 (≈ 0.542 µM)	0.05 (≈ 0.135 µM)	1.56 (≈ 4.22 µM)	3.13 (≈ 8.47 µM)	1.56 (≈ 4.22 µM)	0.78 (≈ 2.11 µM)	1.56 (≈ 4.22 µM)	6.25 (≈ 16.9 µM)	1.56 (≈ 4.22 µM)	0.78 (≈ 2.11 µM)	0.78 (≈ 2.11 µM)	6.25 (≈ 16.9 µM)	0.78 (≈ 2.11 µM)	MIC [11]: 1.56 µg/mL (≈ 4.22 µM); MIC [12]: 3.13 µg/mL (≈ 8.47 µM); MIC (E. coli ATCC 10536): 0.05 µg/mL (≈ 0.135 µM); MIC [13]: 0.1 µg/mL (≈ 0.271 µM); MIC (P. aeruginosa IID 1210): 6.25 µg/mL (≈ 16.9 µM); MIC (C. perfringens KYA 13123): 0.78 µg/mL (≈ 2.11 µM); MIC [14]: 0.05 µg/mL (≈ 0.135 µM); MIC [15]: 0.1 µg/mL (≈ 0.271 µM); MIC (B. distasonis 8503): 6.25 µg/mL (≈ 16.9 µM); MIC (Shigella sonnei IID 969): 0.78 µg/mL (≈ 2.11 µM); MIC (S. aureus Smith): 0.39 µg/mL (≈ 1.06 µM); MIC (F. necrophorum S-45): 3.13 µg/mL (≈ 8.47 µM)
